Measurements reported in US12090225B2 (Avalyn Pharma Inc., priority 2018, dated 2024).

Columns and labels:
[1] = Therapeutic bleomycin model: dose levels and lung pharmacokinetic comparison; assay type: in vivo, Sprague Dawley rats; settings: Oral Gavage (PO) 60.0 mg/kg; rat
[2] = Plasma and lung pharmacokinetics of nintedanib esylate, oral vs intratracheal aerosol; assay type: in vivo, C57BL/6 mice; settings: for adverse effect (dyspnea): mice; for Cmax / half-life / AUC(0-t): female, C57BL/6, mouse; for half-life: read-out: Elimination half-life (alpha-phase)
[3] = Inhaled pharmacokinetics of nintedanib salt forms (intratracheal); assay type: in vivo, C57BL/6 mice; settings: for half-life: C57BL/6, mouse, 1 mg/kg, read-out: Elimination half-life (alpha-phase); for Cmax: read-out: Cmax
[4] = Formulation screening: compatibility of nintedanib esylate with pirfenidone and osmolality adjusting agents (visual appearance); assay type: physicochemical
Method: Formulation screening of stand alone nintedanib esylate and in combination with pirfenidone were conducted. Commonly used ionic osmolality adjusting agents include sodium chloride, sodium citrate, magnesium chloride were evaluated as excipients. In addition, mannitol and propylene glycol, which are […] osmolality adjusting agents, were also tested.
The resulting solutions, if not immediately precipitated, were filled into clear Type I glass vials and sealed with a Teflon lined rubber stopper and aluminum crimp cap. The test solutions were stored at ambient room condition in the dark. Visual appearance was periodically assessed within 24 hours and periodically thereafter. Table 31 summarizes the initial formulation screening results.

[5] = Tier 3: compatibility in 30 mM NaCl with a second excipient; assay type: physicochemical
Method: Compatibility of nintedanib esylate and nintedanib esylate plus pirfenidone control with sodium chloride and a second excipient was assessed. […] The test solutions were filled into 10 mL clear Type I glass vials with Teflon lined rubber stopper and aluminum crimp caps and stored at ambient room condition away from light.

[6] = Compatibility of nintedanib esylate with container system and membrane filter (nylon filter, LDPE vials); assay type: physicochemical
From the text: Compatibility of Nintedanib Esylate with Container System and Type of Membrane Filter: The objective of this study is to determine the suitability of low density polyethylene (LDPE) vials and nylon filters for use with nintedanib esylate standalone and nintedanib esylate plus pirfenidone combination formulations. The test samples were stored at ambient room condition and periodically check for precipitation or crystallization.

[7] = tested on: bleomycin pulmonary fibrosis; assay: Therapeutic bleomycin pulmonary fibrosis model: Ashcroft fibrosis score, hydroxyproline; assay type: in vivo, Sprague Dawley rats; settings: Oral Gavage (PO) 60 mg/kg BID; bleomycin rats
Method: Briefly, acclimated Sprague Dawley male rats (c.a. 253 grams at first dosing) were administered bleomycin on days 1, 2, 3 and 6 by the oropharyngeal (OP) route. On the eighth day, treatment was initiated with either saline or nintedanib. […] Ten animals were enrolled into each dosing group. […] All animals were euthanized on day 28d. Body weights were collected throughout the study, with lung weights at termination (Table 55). Left lungs were extracted and measured for hydroxyproline content, while […] were subjected to histology for Ashcroft fibrosis score determination (Table 56).

[8] = Inhaled pharmacokinetics of fixed combination nintedanib esylate and pirfenidone; assay type: in vivo, C57BL/6 mice; settings: 10.0 mg/kg each IT; for half-life: read-out: Elimination half-life (alpha-phase)
Method: Plasma and lung tissue samples were taken 2, 5, 10, 20, 40 min and 1, 2, and 4 hours post dose. Nintedanib was extracted and quantitated as μg/mL plasma and μg/gram lung tissue.

[9] = Tier 1: nintedanib esylate-excipient compatibility study; assay type: physicochemical
Method: Test solution 101-01-16-00 was filtered through a 0.22 micron PVDF filter, all other formulations were not filtered. The test solutions were filled into 10 mL clear Type I glass vials and sealed with Teflon-lined rubber stopper and aluminum crimp cap.

[10] = Therapeutic bleomycin model: body weight gain, lung weight-to-body weight ratio, tolerability; settings: Oral Gavage (PO), dose group printed 0 mg/kg, BID; bleomycin rats
[11] = 100.0 mg/kg PO, Lung (whole lung homogenate)
[12] = inhaled or intranasal, 2.5 mg/kg IT, Lung (whole lung homogenate)
[13] = inhaled or intranasal, 2.5 mg/kg IT, Plasma
[14] = inhaled or intranasal, 10.0 mg/kg IT, Lung (whole lung homogenate)
[15] = inhaled or intranasal, 10.0 mg/kg IT, Plasma
[16] = 1 mg/kg (base equivalent) IT, mice
[17] = female, C57BL/6, mouse, inhaled or intranasal, Lung (whole lung homogenate)
[18] = female, C57BL/6, mouse, inhaled or intranasal, Plasma

COC(=O)c1ccc2c(c1)NC(=O)/C2=C(\Nc1ccc(N(C)C(=O)CN2CCN(C)CC2)cc1)c1ccccc1 [Nintedanib esylate]
Lung AUC [1]: 29.3 mg·h/kg
Lung Cmax [1]: 4.4 µg/g
adverse effect (dyspnea) ([2]; 2.5 mg/kg IT): not observed
AUC 0-last ([2]; 2.5 mg/kg IT, Lung (whole lung homogenate)): 67.8 mg·h/kg
adverse effect (dyspnea) ([2]; 10 mg/kg IT): caused dyspnea
AUC 0-last ([2]; 10.0 mg/kg IT, Lung (whole lung homogenate)): 167.8 mg·h/kg
AUC 0-last [2, 11]: 24.1 mg·h/kg
Cmax [2, 12]: 57500 ng/g
half-life [2, 12]: 3.8 min
AUC(0-t) [2, 13]: 200 ng·h/mL
Cmax [2, 13]: 700 ng/mL
half-life [2, 13]: 2.3 min
Cmax [2, 14]: 250000 ng/g
half-life [2, 14]: 5.6 min
AUC(0-t) [2, 15]: 600 ng·h/mL
Cmax [2, 15]: 2700 ng/mL
half-life [2, 15]: 2.3 min
Cmax [2, 11]: 12100 ng/g
AUC(0-t) ([2]; 100.0 mg/kg PO, Plasma): 1800 ng·h/mL
Cmax ([2]; 100.0 mg/kg PO, Plasma): 600 ng/mL
half-life ([2]; 100.0 mg/kg PO, Plasma): 112 min
Lung AUC [3, 16]: about 20 mg·hr/kg
lung half-life [3, 16]: about 3 minutes
half-life ([3]; female, lung (whole lung homogenate), inhaled or intranasal, lung (whole lung homogenate), 1.0 mg/kg IT, C57BL/6 mice): 2.9 min
half-life ([3]; female, plasma, inhaled or intranasal, plasma, 1.0 mg/kg IT, C57BL/6 mice): 2 min
Cmax ([3]; female, mouse, inhaled or intranasal, lung (whole lung homogenate), 1.0 mg/kg IT, C57BL/6 mice): 34500 ng/g
Cmax ([3]; female, mouse, inhaled or intranasal, plasma, 1.0 mg/kg IT (base equivalent), C57BL/6 mice): 400 ng/mL
AUC(0-t) ([3]; female, mouse, inhaled or intranasal, plasma, 1.0 mg/kg IT, C57BL/6 mice): 200 ng·h/mL
AUC 0-last ([3]; lung (whole lung homogenate), 1.0 mg/kg IT, C57BL/6 mice): 21.7 mg·h/kg
compatibility with sodium citrate ([4]; aqueous solution): incompatible
compatibility with sodium chloride ([4]; sodium chloride at 30 mM): may be compatible
compatibility with sodium chloride ([4]; sodium chloride at 60 mM or higher): incompatible
stability by itself in 30 mM NaCl [5]: not stable
compatibility with NaCl ([6]; NaCl at 30 mM, in absence of pirfenidone, irrespective of container type and filtration material): incompatible
suitability of clear borosilicate glass vial ([6]; even at 0.5 mg/mL nintedanib esylate): not suitable
suitability of LDPE vial ([6]; nintedanib esylate and nintedanib esylate in 1.5% propylene glycol solutions): suitable
Fibrosis Score (SD) (Ashcroft) [7]: 2.3 (0.45)
Fibrosis Score, Delta to Vehicle (%) [7]: 11.5%
AUC 0-last ([8]; Lung (whole lung homogenate)): 68.4 mg·h/kg
Cmax [8, 17]: 171000 ng/g
half-life [8, 17]: 1.8 min
AUC(0-t) [8, 18]: 1000 ng·h/mL
Cmax [8, 18]: 2800 ng/mL
half-life [8, 18]: 7.7 min
compatibility with clear borosilicate glass vial [9]: not compatible
compatibility with PVDF membrane filter ([9]; 0.22 μm): not compatible
Body Weight Gain, Delta to Sham (%) [10]: −46.9%
